Data from patent publication US8546385B2, “Benzoic pyrrolopyridine derivatives” (Laboratoires FOURNIER SA, priority 2010, dated 2013).
Read-outs that look alike come from different tables or passages of the source.

Legend:
[1] = target: hNurr1_RXRαFL (NURR-1/RXRα heterodimer) (Homo sapiens, UniProt P19793); experiment: Transactivation test (luciferase reporter) in Cos-7 cells co-transfected with NURR-1-Gal4 and RXRα; type: cell-based
Method: The ability of the compounds according to the invention to behave as activators of the heterodimers formed by the NURR-1 nuclear receptor and the RXR nuclear receptors was measured, by means of an in vitro test. A transactivation test was used as a primary screening test. […] The transfections were performed using a chemical agent (Jet PEI). The transfected cells were distributed into 384-well plates and left to stand for 24 hours. After 24 hours, the culture medium was changed. […] After incubating overnight, the luciferase expression was measured after addition of “SteadyGlo” according to the manufacturer's instructions (Promega). […] The levels of induction were calculated relative to the basal activity of each heterodimer. The results were expressed as a percentage of the level of induction relative to the level of induction obtained with the reference (the level of induction of the reference is arbitrarily equal to 100%).

[2] = target: hNurr1_RXRγFL (NURR-1/RXRγ heterodimer) (Homo sapiens, UniProt P48443); experiment: Transactivation test (luciferase reporter) in Cos-7 cells co-transfected with NURR-1-Gal4 and RXRγ; type: cell-based; conditions: percentage efficacy relative to the reference XCT0135908 at 2×10^−5 M (=100%), read-out: hNurr1_RXRγFL Eff (%)
Chain of hNurr1_RXRγFL (NURR-1/RXRγ heterodimer) (P48443 whole entry, the tested form may be a part): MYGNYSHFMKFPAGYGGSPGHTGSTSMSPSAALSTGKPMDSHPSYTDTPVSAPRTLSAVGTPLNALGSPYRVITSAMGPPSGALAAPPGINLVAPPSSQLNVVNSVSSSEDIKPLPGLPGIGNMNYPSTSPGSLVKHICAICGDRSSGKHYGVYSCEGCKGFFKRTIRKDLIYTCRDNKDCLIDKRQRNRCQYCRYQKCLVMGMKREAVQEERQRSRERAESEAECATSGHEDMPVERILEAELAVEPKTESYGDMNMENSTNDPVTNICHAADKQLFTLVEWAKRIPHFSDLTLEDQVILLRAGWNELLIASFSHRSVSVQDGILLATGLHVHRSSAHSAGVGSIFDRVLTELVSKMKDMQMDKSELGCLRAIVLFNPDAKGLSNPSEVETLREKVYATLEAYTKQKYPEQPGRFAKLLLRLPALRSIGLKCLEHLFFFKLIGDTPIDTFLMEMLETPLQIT
Chain of hNurr1_RXRγFL (NURR-1/RXRγ heterodimer) (P43354 whole entry partner, the tested form may be a part): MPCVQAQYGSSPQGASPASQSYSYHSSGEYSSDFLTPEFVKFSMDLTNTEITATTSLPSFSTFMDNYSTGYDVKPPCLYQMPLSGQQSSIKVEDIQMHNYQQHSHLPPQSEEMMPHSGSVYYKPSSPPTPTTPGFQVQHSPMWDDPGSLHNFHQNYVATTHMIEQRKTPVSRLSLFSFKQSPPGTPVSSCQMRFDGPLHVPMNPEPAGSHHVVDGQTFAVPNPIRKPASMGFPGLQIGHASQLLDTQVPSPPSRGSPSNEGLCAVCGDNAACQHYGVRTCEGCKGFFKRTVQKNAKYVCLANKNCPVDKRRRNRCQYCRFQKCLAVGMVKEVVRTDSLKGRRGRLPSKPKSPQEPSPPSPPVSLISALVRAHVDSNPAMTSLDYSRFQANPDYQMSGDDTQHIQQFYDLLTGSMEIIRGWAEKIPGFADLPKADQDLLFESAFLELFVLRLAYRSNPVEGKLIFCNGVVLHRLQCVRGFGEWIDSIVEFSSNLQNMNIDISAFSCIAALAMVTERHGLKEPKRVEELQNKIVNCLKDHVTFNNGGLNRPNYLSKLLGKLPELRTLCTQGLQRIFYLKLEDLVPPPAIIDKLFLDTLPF
Method: The ability of the compounds according to the invention to behave as activators of the heterodimers formed by the NURR-1 nuclear receptor and the RXR nuclear receptors was measured, by means of an in vitro test.
A transactivation test was used as a primary screening test. Cos-7 cells were co-transfected with a plasmid expressing a construct of the NURR-1-Ga14 human receptor, a plasmid expressing the RXR human receptor (RXRα or RXRγ receptor) and a reporter plasmid 5Gal4pGL3-TK-Luc. The transfections were performed using a chemical agent (Jet PEI).
The transfected cells were distributed into 384-well plates and left to stand for 24 hours.
After 24 hours, the culture medium was changed. The test products were added (final concentration of between 10^−4 and 3×10^−10 M) in the culture medium. After incubating overnight, the luciferase expression was measured after addition of “SteadyGlo” according to the manufacturer's instructions (Promega).
4-[[6-Methyl-2-phenyl-5-(2-propenyl)-4-pyrimidinyl]amino]benzoic acid (reference XCT0135908, described by Wallen-Mackenzie et al. 2003, Genes & Development 17: 3036-3047) at 2×10^−5 M (RXR agonist) was used as reference.
The levels of induction were calculated relative to the basal activity of each heterodimer. The results were expressed as a percentage of the level of induction relative to the level of induction obtained with the reference (the level of induction of the reference is arbitrarily equal to 100%).

[3] = percentage efficacy relative to the reference XCT0135908 at 2×10^−5 M (=100%), read-out: hNurr1_RXRαFL Eff (%)

Chain of hNurr1_RXRαFL (NURR-1/RXRα heterodimer) (P19793 whole entry, the tested form may be a part): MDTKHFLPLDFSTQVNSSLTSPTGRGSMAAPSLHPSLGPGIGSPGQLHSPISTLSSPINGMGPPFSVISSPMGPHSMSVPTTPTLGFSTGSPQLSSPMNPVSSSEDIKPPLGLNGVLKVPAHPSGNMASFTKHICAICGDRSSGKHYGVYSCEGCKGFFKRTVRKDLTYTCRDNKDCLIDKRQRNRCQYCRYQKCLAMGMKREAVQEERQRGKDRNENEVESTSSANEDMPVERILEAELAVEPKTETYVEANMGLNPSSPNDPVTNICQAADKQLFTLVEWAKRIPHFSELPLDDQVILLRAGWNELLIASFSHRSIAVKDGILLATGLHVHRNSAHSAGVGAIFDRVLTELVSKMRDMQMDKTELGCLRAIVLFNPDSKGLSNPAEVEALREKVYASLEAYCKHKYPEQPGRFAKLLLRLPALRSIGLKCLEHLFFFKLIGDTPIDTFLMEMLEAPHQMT
Chain of hNurr1_RXRαFL (NURR-1/RXRα heterodimer) (P43354 whole entry, further chain, the tested form may be a part): as the sequence (P43354 whole entry partner, the tested form may be a part) above

Row | Compound | Emax [1, 3] [%] | Emax [2] [%] | Emax ([1]; COS-7, read-out: hNurr1_RXRαFL Eff (%), percentage efficacy relative to the reference XCT0135908 at 2×10^−5 M (=100%)) [%]
1 | CC(C)(C)c1cccc(S(=O)(=O)n2c(Cc3ccc(C(=O)NS(C)(=O)=O)cc3)cc3nc(C(F)(F)F)ccc32)c1 [Example 39, N-{4-[1-(3-tert-butylbenzenesulfonyl)-5-trifluoromethyl-1H-pyrrolo[3,2-b]pyridin-2-ylmethyl]benzoyl}methanesulfonamide] | 51 |  | 
2 | Cc1c(Cc2ccc(C(=O)O)cc2)n(S(=O)(=O)c2cccc(C(C)(C)C)c2)c2ccc(C(F)(F)F)nc12 [Example 37, 4-[[1-[[3-(1,1-dimethylethyl)phenyl]sulfonyl]-3-methyl-5-(trifluoro-methyl)-1H-pyrrolo[3,2-b]pyridin-2-yl]methyl]benzoic acid] | 67 |  | 
3 | CC(C)(C)c1cccc(S(=O)(=O)n2c(Cc3ccc(C(=O)O)cc3)cc3nc(C(F)(F)F)ccc32)c1 [Example 22, 4-[[1-[[3-(1,1-dimethylethyl)phenyl]sulfonyl]-5-(trifluoromethyl)-1H-pyrrolo[3,2-b]pyridin-2-yl]methyl]benzoic acid] | 92 | 68 | 
4 | CC(C)(C)c1cccc(S(=O)(=O)n2c(Cc3csc(C(=O)O)c3)cc3cc(C(F)(F)F)ncc32)c1 [Example 6, 4-[[1-[[3-(1,1-dimethylethyl)phenyl]sulfonyl]-5-(trifluoromethyl)-1H-pyrrolo[2,3-c]pyridin-2-yl]methyl]thiophene-2-carboxylic acid] | 137 |  | 
5 | CC(C)c1ccc(S(=O)(=O)n2c(Cc3ccc(C(=O)O)cc3)cc3cc(Cl)cnc32)cc1 [Example 31, 4-[[5-chloro-1-[[4-(1-methylethyl)phenyl]sulfonyl]-1H-pyrrolo[2,3-b]pyridin-2-yl]methyl]benzoic acid] |  | 48 | 63
6 | CC(C)(C)c1cccc(S(=O)(=O)n2c(Cc3nc(C(=O)O)cs3)cc3nc(C(F)(F)F)ccc32)c1 [Example 8, 2-[[1-[[3-(1,1-dimethylethyl)phenyl]sulfonyl]-5-(trifluoromethyl)-1H-pyrrolo[3,2-b]pyridin-2-yl]methyl]thiazole-4-carboxylic acid] | 103 | 72 | 
7 | CC(C)(C)c1cccc(S(=O)(=O)n2c(Cc3ccc(F)c(C(=O)O)c3)cc3cc(C(F)(F)F)ncc32)c1 [Example 7, 5-[[1-[[3-(1,1-dimethylethyl)phenyl]sulfonyl]-5-(trifluoromethyl)-1H-pyrrolo[2,3-c]pyridin-2-yl]methyl]-2-fluorobenzoic acid] | 119 |  | 
8 | CN1CCOc2ccc(S(=O)(=O)n3c(Cc4ccc(C(=O)O)cc4)cc4cc(C(F)(F)F)ncc43)cc21 [Example 12, 4-[[1-[(3,4-dihydro-4-methyl-2H-1,4-benzoxazin-6-yl)sulfonyl]-5-(trifluoromethyl)-1H-pyrrolo[2,3-c]pyridin-2-yl]methyl]benzoic acid] | 81 | 75 | 
9 | CC(C)(C)c1cccc(S(=O)(=O)n2c(C(=O)c3ccc(C(=O)O)s3)cc3nc(C(F)(F)F)ccc32)c1 [Example 34, 5-{1-(3-(1,1-dimethylethyl)phenylsulfonyl)-5-trifluoromethyl-1H-pyrrolo[3,2-b]pyridine-2-carbonyl}thiophene-2-carboxylic acid] | 31 |  | 
10 | CC(C)(C)c1cccc(S(=O)(=O)n2c(Cc3cncc(C(=O)O)c3)cc3cc(C(F)(F)F)ncc32)c1 [Example 5, 5-[[1-[[3-(1,1-dimethylethyl)phenyl]sulfonyl]-5-(trifluoromethyl)-1H-pyrrolo[2,3-c]pyridin-2-yl]methyl]pyridine-3-carboxylic acid] | 94 |  | 
11 | CC(C)(C)c1cccc(S(=O)(=O)n2c(Cc3cccc(C(=O)O)c3)cc3cc(C(F)(F)F)ncc32)c1 [Example 2, 3-[[1-[[3-(1,1-dimethylethyl)phenyl]sulfonyl]-5-(trifluoromethyl)-1H-pyrrolo[2,3-c]pyridin-2-yl]methyl]-2-benzoic acid] | 70 | 86 | 
12 | CC(C)(C)c1cccc(S(=O)(=O)n2c(C(O)c3ccc(C(=O)O)s3)cc3nc(C(F)(F)F)ccc32)c1 (stereo not shown) [Example 32, 5-{hydroxy[1-(3-(1,1-dimethylethyl)phenylsulfonyl)-5-trifluoromethyl-1H-pyrrolo[3,2-b]pyridin-2-yl]methyl}thiophene-2-carboxylic acid] | 84 |  | 
13 | CCN(CC)C(=O)c1ccc(C(F)c2cc3nc(C(F)(F)F)ccc3n2S(=O)(=O)c2cccc(C(C)(C)C)c2)s1 (stereo not shown) [Example 33, 5-[[1-[[3-(1,1-dimethylethyl)phenyl]sulfonyl]-5-(trifluoromethyl)-1H-pyrrolo[3,2-b]pyridin-2-yl]fluoromethyl]-N,N-diethyl-2-thiophenecarboxamide] | 92 |  | 
14 | CC(C)(C)c1cccc(S(=O)(=O)n2c(Cc3cc(C(=O)O)co3)cc3cc(C(F)(F)F)ncc32)c1 [Example 4, 5-[[1-[[3-(1,1-dimethylethyl)phenyl]sulfonyl]-5-(trifluoromethyl)-1H-pyrrolo[2,3-c]pyridin-2-yl]methyl]furan-3-carboxylic acid] | 104 |  | 

Now from value to molecule, other results behind:

Row | Emax [1, 3] [%] | Emax [2] [%] | Compound | Emax ([1]; COS-7, read-out: hNurr1_RXRαFL Eff (%), percentage efficacy relative to the reference XCT0135908 at 2×10^−5 M (=100%)) [%]
15 | 64 | 54 | CC(C)c1ccc(S(=O)(=O)n2c(Cc3ccc(C(=O)O)cc3)cc3cc(C(F)(F)F)ncc32)cc1 [Example 14, 4-[[1-[[4-(1-methylethyl)phenyl]sulfonyl]-5-(trifluoromethyl)-1H-pyrrolo[2,3-c]pyridin-2-yl]methyl]benzoic acid] | 
16 | 62 | 69 | CN1CCOc2ccc(S(=O)(=O)n3c(Cc4ccc(C(=O)O)cc4)cc4cc(C(F)(F)F)cnc43)cc21 [Example 18, 4-[[1-[(3,4-dihydro-4-methyl-2H-1,4-benzoxazin-6-yl)sulfonyl]-5-(trifluoromethyl)-1H-pyrrolo[2,3-b]pyridin-2-yl]methyl]benzoic acid] | 
17 | 67 | 64 | CC(C)(C)c1cccc(S(=O)(=O)n2c(Cc3ccc(C(=O)O)s3)cc3nc(C(F)(F)F)ccc32)c1 [Example 1, 5-[[1-[[3-(1,1-dimethylethyl)phenyl]sulfonyl]-5-(trifluoromethyl)-1H-pyrrolo[3,2-b]pyridin-2-yl]methyl]thiophene-2-carboxylic acid] | 
18 | 66 | 51 | CC(C)(C)c1cccc(S(=O)(=O)n2c(Cc3ccc(C(=O)O)cc3)cc3cc(C(F)(F)F)cnc32)c1 [Example 28, 4-[[1-[[3-(1,1-dimethylethyl)phenyl]sulfonyl]-5-(trifluoromethyl)-1H-pyrrolo[2,3-b]pyridin-2-yl]methyl]benzoic acid] | 
19 | 68 | 53 | CC(C)c1ccc(S(=O)(=O)n2c(Cc3ccc(C(=O)O)cc3)cc3nc(C(F)(F)F)ccc32)cc1 [Example 16, 4-[1-(4-(1-methylethyl)phenylsulfonyl)-5-trifluoromethyl-1H-pyrrolo[3,2-b]pyridin-2-ylmethyl]benzoic acid] | 
20 | 57 | 52 | CC(C)c1cccc(S(=O)(=O)n2c(Cc3ccc(C(=O)O)cc3)cc3cc(C(F)(F)F)cnc32)c1 [Example 25, 4-[[1-[[3-(1-methylethyl)phenyl]sulfonyl]-5-(trifluoromethyl)-1H-pyrrolo[2,3-b]pyridin-2-yl]methyl]benzoic acid] | 
21 | 42 | 27 | CC(C)c1ccc(S(=O)(=O)n2c(Cc3ccc(C(=O)O)cc3)cc3cc(Cl)ncc32)cc1 [Example 20, 4-[[5-chloro-1-[[4-(1-methylethyl)phenyl]sulfonyl]-1H-pyrrolo[2,3-c]pyridin-2-yl]methyl]benzoic acid] | 
22 | 80 |  | CC(C)c1ccc(S(=O)(=O)n2c(Cc3ccc(C(=O)O)s3)cc3cc(Cl)cnc32)cc1 [Example 38, 5-[[1-[[4-(1,1-methylethyl)phenyl]sulfonyl]-5-chloro-1H-pyrrolo[2,3-b]pyridin-2-yl]methyl]thiophene-2-carboxylic acid] | 
